This note sets out measurements from PubChem BioAssay AID192 (DTP/NCI, 2004).

“And” between values parts separate entries of the source, which are not always exact repeats. Equal entries are not always repeated. Toxic doses and inconclusive results are not listed.

The assay has as its system BDF1 mice, B16 melanoma ip, median survival T/C. Put plainly: NCI In Vivo Anticancer Drug Screen. Data for tumor model B16 Melanoma (intraperitoneal) in B6D2F1 (BDF1) mice. Conditions: endpoint: median survival time, higher = longer survival. The procedure, abridged: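 Antitumor activity is assessed in mice bearing a transplanted tumor, with survival or tumor size compared against vehicle-dosed controls and expressed as T/C.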

Where [1] appears, read: dose: 100.0 mg/kg/injection, schedule: Q01DX009 (ip), vehicle: Klucel (hydroxypropylcellulose) (HPC).
Setting [2] is: dose: 200.0 mg/kg/injection, schedule: Q01DX009 (ip), vehicle: Klucel (hydroxypropylcellulose) (HPC).
Setting [3] is: dose: 25.0 mg/kg/injection, schedule: Q01DX009 (ip), vehicle: saline with Tween-80.
[4] abbreviates: dose: 100.0 mg/kg/injection, schedule: Q01DX009 (ip), vehicle: saline with Tween-80.
Setting [5] is: dose: 200.0 mg/kg/injection, schedule: Q01DX009 (ip), vehicle: saline with Tween-80.
Where [6] appears, read: dose: 400.0 mg/kg/injection, schedule: Q01DX009 (ip), vehicle: saline with Tween-80.
The mark [7] stands for this setting: dose: 100.0 mg/kg/injection, schedule: Q04DX003 (ip), vehicle: Klucel (hydroxypropylcellulose) (HPC).
[8] abbreviates: dose: 200.0 mg/kg/injection, schedule: Q04DX003 (ip), vehicle: Klucel (hydroxypropylcellulose) (HPC).
[9] abbreviates: dose: 25.0 mg/kg/injection, schedule: Q01DX009 (ip), vehicle: saline.

Regarding `COc1ccc(N=C(N)NC#N)cc1`, the T/C is 105 % of control under setting [1] and 99 % of control under setting [2].

`COc1cccc2c1C(=O)c1c(O)c3c(c(O)c1C2=O)CC(O)(C(C)=O)CC3O` (centres undefined): the T/C (dose: 0.12 mg/kg/injection, schedule: Q01DX009 (ip), vehicle: saline) was 91 % of control; the T/C (dose: 0.12 mg/kg/injection, schedule: Q04DX003 (ip), vehicle: saline) is 94 % of control; the T/C (dose: 0.25 mg/kg/injection, schedule: Q04DX003 (ip), vehicle: saline) was 100 % of control; the T/C (dose: 0.5 mg/kg/injection, schedule: Q01DX009 (ip), vehicle: saline) is 86 % of control; the T/C (dose: 0.5 mg/kg/injection, schedule: Q04DX003 (ip), vehicle: saline) is 105 % of control; the T/C (dose: 1.0 mg/kg/injection, schedule: Q01DX009 (ip), vehicle: saline) was 94 % of control. In addition, the T/C (dose: 1.0 mg/kg/injection, schedule: Q04DX003 (ip), vehicle: saline) is 97 % of control; the T/C (dose: 2.0 mg/kg/injection, schedule: Q01DX009 (ip), vehicle: saline) is 102 % of control; the T/C (dose: 2.0 mg/kg/injection, schedule: Q04DX003 (ip), vehicle: saline) is 102 % of control; the T/C (dose: 4.0 mg/kg/injection, schedule: Q01DX009 (ip), vehicle: saline) is 100 % of control; the T/C (dose: 4.0 mg/kg/injection, schedule: Q04DX003 (ip), vehicle: saline) is 108 % of control; the T/C (dose: 8.0 mg/kg/injection, schedule: Q01DX009 (ip), vehicle: saline) is 105 % of control.

On to `COC1=C2C[C@@H](C)C[C@@H](OC)[C@@H](O)[C@H](C)/C=C(\C)[C@@H](OC(N)=O)[C@H](OC)/C=C\C=C(/C)C(=O)NC(=CC1=O)C2=O`, for which the T/C runs as follows: (dose: 0.5 mg/kg/injection, schedule: Q01DX005 (ip), vehicle: other) 110 % of control; (dose: 0.5 mg/kg/injection, schedule: Q01DX005 (ip), vehicle: saline with Tween-80) 112 % of control; (dose: 0.5 mg/kg/injection, schedule: Q01DX005 (ip), vehicle: water) 112 % of control and 118 % of control; (dose: 0.5 mg/kg/injection, schedule: Q01DX009 (ip), vehicle: saline with Tween-80) 110 % of control; (dose: 1.0 mg/kg/injection, schedule: Q01DX005 (ip), vehicle: saline with Tween-80) 118 % of control; (dose: 1.0 mg/kg/injection, schedule: Q01DX005 (ip), vehicle: water) 119 % of control. In addition, where the note is “dose: 2.0 mg/kg/injection, schedule: Q01DX005 (ip), vehicle: saline with Tween-80”, the T/C is 118 % of control.

`Cc1ccc(S(=O)(=O)Nc2c([N+](=O)[O-])cc([N+](=O)[O-])c3ccccc23)cc1`: the T/C was 107 % of control (dose: 6.25 mg/kg/injection, schedule: Q01DX009 (ip), vehicle: saline with Tween-80); 100 % of control (dose: 12.5 mg/kg/injection, schedule: Q01DX009 (ip), vehicle: saline with Tween-80); 112 % of control under setting [3].

Take `Nn1c(=O)[nH][nH]c1=O`: the T/C was 92 % of control (dose: 50.0 mg/kg/injection, schedule: Q01DX009 (ip), vehicle: Klucel (hydroxypropylcellulose) (HPC)); 110 % of control under setting [1]; 115 % of control under setting [4]; 89 % of control under setting [2]; 105 % of control under setting [5]; 105 % of control under setting [6].

For the compound `O=c1[nH]c(=O)n(C2OC(CO)C(O)C2O)cc1F` (centres undefined), the T/C is, setting by setting: (dose: 0.78 mg/kg/injection, schedule: Q01DX009 (ip), vehicle: saline) 156 % of control; (dose: 1.56 mg/kg/injection, schedule: Q01DX009 (ip), vehicle: saline) 165 % of control; (dose: 3.12 mg/kg/injection, schedule: Q01DX009 (ip), vehicle: saline) 165 % of control.

Take `ClCCCCCCBr`: the T/C (dose: 75.0 mg/kg/injection, schedule: Q01DX009 (ip), vehicle: Klucel (hydroxypropylcellulose) (HPC)) was 122 % of control; the T/C (dose: 150.0 mg/kg/injection, schedule: Q01DX009 (ip), vehicle: Klucel (hydroxypropylcellulose) (HPC)) is 122 % of control; the T/C (dose: 300.0 mg/kg/injection, schedule: Q01DX009 (ip), vehicle: Klucel (hydroxypropylcellulose) (HPC)) was 105 % of control.

Consider `C=C1C(=O)O[C@@H]2/C=C(/C)[C@@]3(O)C=C[C@](C)(C[C@@H](OC(=O)/C(=C\C)COC(C)=O)[C@@H]12)O3`, for which the T/C is, setting by setting: (dose: 0.03 mg/kg/injection, schedule: Q01DX009 (ip), vehicle: carboxymethylcellulose (CMC)) 99 % of control; (dose: 0.12 mg/kg/injection, schedule: Q01DX009 (ip), vehicle: carboxymethylcellulose (CMC)) 102 % of control; (dose: 0.25 mg/kg/injection, schedule: Q01DX009 (ip), vehicle: carboxymethylcellulose (CMC)) 97 % of control; (dose: 6.0 mg/kg/injection, schedule: Q01DX009 (ip), vehicle: saline with Tween-80) 99 % of control; (dose: 8.0 mg/kg/injection, schedule: Q01DX009 (ip), vehicle: saline with Tween-80) 105 % of control; (dose: 12.0 mg/kg/injection, schedule: Q01DX009 (ip), vehicle: saline with Tween-80) 109 % of control. Moreover, the T/C (dose: 18.0 mg/kg/injection, schedule: Q01DX009 (ip), vehicle: saline with Tween-80) is 92 % of control.

In the case of `COc1cc(C(=O)O)c(Br)cc1C`, the T/C runs as follows: under setting [7], 105 % of control; under setting [8], 97 % of control.

Take `Cc1ccc2[nH]c(=O)oc(=O)c2c1`: the T/C reads like this: (dose: 50.0 mg/kg/injection, schedule: Q04DX003 (ip), vehicle: Klucel (hydroxypropylcellulose) (HPC)) 98 % of control; under setting [7], 96 % of control; under setting [8], 93 % of control.

Regarding `NC(Cc1ccc(O)cc1)C(=O)OCc1ccccc1` (centres undefined), the T/C was 102 % of control under setting [4], 114 % of control under setting [5] and 98 % of control under setting [6].

In the case of `C/C(=C\c1ccccc1)[N+](=O)[O-]`, the T/C under setting [3] was 111 % of control; the T/C (dose: 25.0 mg/kg/injection, schedule: Q04DX003 (ip), vehicle: saline with Tween-80) is 110 % of control; the T/C (dose: 50.0 mg/kg/injection, schedule: Q01DX009 (ip), vehicle: saline with Tween-80) was 105 % of control; the T/C (dose: 50.0 mg/kg/injection, schedule: Q04DX003 (ip), vehicle: saline with Tween-80) was 110 % of control.

Regarding `O=C1NC(=O)C2C3C=CC(C3)C12` (centres undefined), the T/C was 105 % of control under setting [9]; 105 % of control (dose: 50.0 mg/kg/injection, schedule: Q01DX009 (ip), vehicle: saline); 113 % of control (dose: 100.0 mg/kg/injection, schedule: Q01DX009 (ip), vehicle: saline).

`Nc1cc2[nH]cnc2c(=O)[nH]1`: the T/C reads like this: (dose: 12.5 mg/kg/injection, schedule: Q01DX009 (ip), vehicle: suspension in saline) 88 % of control; (dose: 18.8 mg/kg/injection, schedule: Q01DX009 (ip), vehicle: saline) 102 % of control; under setting [9], 92 % of control; (dose: 25.0 mg/kg/injection, schedule: Q01DX009 (ip), vehicle: suspension in saline) 95 % of control; (dose: 37.5 mg/kg/injection, schedule: Q01DX009 (ip), vehicle: saline) 102 % of control; (dose: 50.0 mg/kg/injection, schedule: Q01DX009 (ip), vehicle: suspension in saline) 94 % of control. The T/C is, setting by setting: (dose: 75.0 mg/kg/injection, schedule: Q01DX009 (ip), vehicle: saline) 107 % of control; (dose: 100.0 mg/kg/injection, schedule: Q01DX009 (ip), vehicle: suspension in saline) 95 % of control; (dose: 150.0 mg/kg/injection, schedule: Q01DX009 (ip), vehicle: saline) 107 % of control; (dose: 200.0 mg/kg/injection, schedule: Q01DX009 (ip), vehicle: suspension in saline) 106 % of control.

Take `CC(=O)NC1CC2c3ccccc3C1([N+](=O)[O-])c1ccccc12` (centres undefined): the T/C by setting is: under setting [1], 100 % of control; under setting [2], 94 % of control; (dose: 400.0 mg/kg/injection, schedule: Q01DX009 (ip), vehicle: Klucel (hydroxypropylcellulose) (HPC)) 91 % of control.

Take `CCCCCCC(=O)NC1=C(N2CC2)C(=O)C(NC(=O)CCCCCC)=C(N2CC2)C1=O`: the T/C by setting is: (dose: 6.25 mg/kg/injection, schedule: Q01DX009 (ip), vehicle: Klucel (hydroxypropylcellulose) (HPC)) 110 % of control; (dose: 12.5 mg/kg/injection, schedule: Q01DX009 (ip), vehicle: Klucel (hydroxypropylcellulose) (HPC)) 115 % of control and 120 % of control; (dose: 25.0 mg/kg/injection, schedule: Q01DX009 (ip), vehicle: Klucel (hydroxypropylcellulose) (HPC)) 100 % of control.
